Key:
[1] = biological target: GST-tagged human ROCK1 catalytic domain 1-477 (Homo sapiens (Human), UniProt Q13464); assay: Inhibition of Rho-associated protein kinase isoform 1 (LANCE Ultra ULight-CREBtide FRET kinase assay); type: biochemical; details: 30 μM was the highest concentration analyzed
Procedure, shortened: (§1)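 Baculovirus-expressed kinase phosphorylated ULight-CREBtide for 90 min at room temperature before the reaction was stopped with 10 mM EDTA. Phospho-substrate was detected by TR-FRET with 1 nM Europium-anti-phospho-CREB (Ser133) antibody after 60 min at room temperature.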

[2] = biological target: GST-tagged human ROCK2 catalytic domain 1-553 (Homo sapiens (Human), UniProt O75116); assay: Inhibition of Rho-associated protein kinase isoform 2 (LANCE Ultra ULight-CREBtide FRET kinase assay); type: biochemical; details: for IC50: 30 μM was the highest concentration analyzed; for Selectivity for ROCK2 over ROCK1 (IC50 ROCK1 / IC50 ROCK2): selectivity ROCK2 vs ROCK1
GST-tagged human ROCK2 catalytic domain 1-553, sequence (O75116 1-553): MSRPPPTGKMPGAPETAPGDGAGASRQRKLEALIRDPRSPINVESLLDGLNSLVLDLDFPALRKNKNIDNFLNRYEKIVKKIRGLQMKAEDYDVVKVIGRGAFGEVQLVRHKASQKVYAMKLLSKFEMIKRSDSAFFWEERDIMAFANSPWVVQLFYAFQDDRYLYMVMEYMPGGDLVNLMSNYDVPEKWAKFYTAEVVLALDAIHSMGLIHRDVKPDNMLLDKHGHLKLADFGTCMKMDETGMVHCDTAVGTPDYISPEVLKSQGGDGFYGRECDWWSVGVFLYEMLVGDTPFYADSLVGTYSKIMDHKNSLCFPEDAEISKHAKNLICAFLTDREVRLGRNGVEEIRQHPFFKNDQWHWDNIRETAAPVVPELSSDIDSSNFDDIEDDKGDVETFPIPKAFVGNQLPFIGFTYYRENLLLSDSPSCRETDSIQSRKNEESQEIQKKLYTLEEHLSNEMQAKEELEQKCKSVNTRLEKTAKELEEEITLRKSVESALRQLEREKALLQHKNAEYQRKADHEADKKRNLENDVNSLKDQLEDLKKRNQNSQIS
Procedure, shortened: as §1

GST-tagged human ROCK1 catalytic domain 1-477, sequence (Q13464 1-477): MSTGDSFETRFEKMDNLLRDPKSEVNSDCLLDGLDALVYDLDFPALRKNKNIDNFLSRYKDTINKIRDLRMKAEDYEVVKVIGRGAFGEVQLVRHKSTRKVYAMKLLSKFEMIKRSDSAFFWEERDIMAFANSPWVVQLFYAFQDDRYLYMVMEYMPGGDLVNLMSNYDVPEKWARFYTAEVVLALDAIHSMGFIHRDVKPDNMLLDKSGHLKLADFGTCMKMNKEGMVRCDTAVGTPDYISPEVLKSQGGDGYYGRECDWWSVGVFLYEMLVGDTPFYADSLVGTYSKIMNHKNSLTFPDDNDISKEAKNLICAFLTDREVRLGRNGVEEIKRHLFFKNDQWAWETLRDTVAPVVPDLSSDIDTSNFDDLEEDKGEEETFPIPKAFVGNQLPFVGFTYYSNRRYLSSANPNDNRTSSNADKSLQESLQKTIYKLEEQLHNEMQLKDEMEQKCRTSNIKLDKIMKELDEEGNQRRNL

| SMILES | IC50 [1] [µM] | IC50 [2] [µM] | Selectivity for ROCK2 over ROCK1 (IC50 ROCK1 / IC50 ROCK2) [2] |
| --- | --- | --- | --- |
| CC(C)(C)c1cn2cccc(-c3nnc(Nc4ccc5[nH]ncc5c4Cl)s3)c2n1 [Example 75T] | > 30 | > 30 | – |
| CN(c1nnc(-c2cccc(NC(=O)Cc3ccc(F)cc3)c2)s1)c1ccc2[nH]ncc2c1Cl [Example 75U] | > 30 | > 30 | – |
| Clc1c(Nc2nnc(-c3cccc4c3ncn4CCN3CCOCC3)s2)ccc2[nH]ncc12 [Example 75V] | > 30 | > 30 | – |
| c1cc(-c2nnco2)cc(-c2nnc(Nc3ccc4[nH]ncc4c3)s2)c1 [Example A-6] | > 30 | > 30 | <5 |
| CC(C)NC(=O)COc1cncc(-c2nnc(Nc3ccc4[nH]ncc4c3)s2)c1 [Example A-7] | > 30 | < 1 | >50 |
| CCS(=O)(=O)Nc1cccc(-c2nnc(Nc3ccc4[nH]ncc4c3)s2)c1 [Example A-8] | > 30 | 1 to 15 | >5 |
| Cn1cc(C(=O)Nc2cccc(-c3nnc(Nc4ccc5[nH]ncc5c4Cl)s3)c2)cn1 [Example A-11] | > 30 | < 1 | >100 |
| OCCN(c1ccc2[nH]ncc2c1)c1nnc(-c2cnccn2)s1 [Example A-12] | > 30 | > 30 | <5 |
| Nc1cncc(-c2nnc(Nc3ccc4[nH]ncc4c3)s2)n1 [Example A-13] | > 30 | 1 to 15 | >5 |
| c1cc(-c2cn[nH]c2)cc(-c2nnc(Nc3ccc4[nH]ncc4c3)s2)c1 [Example A-17] | > 30 | < 1 | >100 |
| CS(=O)(=O)Nc1cccc(-c2nnc(Nc3ccc4[nH]ncc4c3)s2)c1 [Example A-19] | > 30 | < 1 | >100 |
| O=C(Nc1cccc(-c2nnc(Nc3ccc4[nH]ncc4c3)s2)c1)c1cnn(CCO)c1 [Example A-20] | > 30 | < 1 | >100 |
| CC(C)NC(=O)COc1cccc(-c2nnc(Nc3ccc4[nH]ncc4c3)s2)c1 [Example A-23] | > 30 | < 1 | >50 |
| c1cnc(-c2nnc(Nc3ccc4[nH]ncc4c3)s2)cn1 [Example A-25] | > 30 | 1 to 15 | >5 |
| c1cc(-c2cnco2)cc(-c2nnc(Nc3ccc4[nH]ncc4c3)s2)c1 [Example A-26] | > 30 | > 30 | <5 |
| Cn1cc(C(=O)Nc2ccc(-c3nnc(Nc4ccc5[nH]ncc5c4)s3)cc2)cn1 [Example A-27] | > 30 | > 30 | <5 |
| c1cc(-c2ncco2)cc(-c2nnc(Nc3ccc4[nH]ncc4c3)s2)c1 [Example A-30] | > 30 | < 1 | >100 |
| O=C(Nc1cccc(-c2nnc(Nc3ccc4[nH]ncc4c3)s2)n1)c1c[nH]cn1 [Example A-31] | > 30 | < 1 | >100 |
| O=C(Nc1cc(-c2nnc(Nc3ccc4[nH]ncc4c3)s2)ccn1)c1c[nH]cn1 [Example A-32] | > 30 | < 1 | >100 |
| c1cc2[nH]ncc2cc1Nc1nnc(C2CCCNC2)s1 (stereo not drawn) [Example A-33] | 15 to 30 | 1 to 15 | <5 |
| COc1cccc(-c2nnc(Nc3ccc4[nH]ncc4c3)s2)c1 [Example A-34] | > 30 | < 1 | >100 |
| O=C(c1ccnnc1)N1CCN(c2nnc(Nc3ccc4[nH]ncc4c3)s2)CC1 [Example A-36] | > 30 | 1 to 15 | >5 |
| O=C(Nc1cncc(-c2nnc(Nc3ccc4[nH]ncc4c3)s2)c1)c1c[nH]cn1 [Example A-37] | > 30 | < 1 | >100 |
| Cc1cc(C(=O)Nc2cccc(-c3nnc(Nc4ccc5[nH]ncc5c4)s3)c2)no1 [Example A-40] | > 30 | < 1 | >100 |
| Cn1cc(C(=O)Nc2cccc(-c3nnc(Nc4ccc5[nH]ncc5c4)s3)c2)cn1 [Example A-41] | > 30 | < 1 | >100 |
| Cn1nccc1C(=O)Nc1cccc(-c2nnc(Nc3ccc4[nH]ncc4c3)s2)c1 [Example A-43] | > 30 | < 1 | >100 |
| Cc1cnoc1C(=O)Nc1cccc(-c2nnc(Nc3ccc4[nH]ncc4c3)s2)c1 [Example A-44] | > 30 | < 1 | >100 |
| O=C(Nc1cccc(-c2nnc(Nc3ccc4[nH]ncc4c3)s2)c1)c1cn[nH]c1 [Example A-46] | > 30 | < 1 | >100 |
| Nc1cccc(-c2nnc(Nc3ccc4[nH]ncc4c3)s2)c1 [Example A-47] | > 30 | 1 to 15 | >5 |

More lines, now with the values ahead:

| IC50 [1] [µM] | IC50 [2] [µM] | Selectivity for ROCK2 over ROCK1 (IC50 ROCK1 / IC50 ROCK2) [2] | SMILES |
| --- | --- | --- | --- |
| < 1 | < 1 | >5 | CC(=O)Nc1cc(CC(=O)O)cc(-c2nnc(Nc3ccc4[nH]ncc4c3Cl)s2)c1 [Example 75S] |
| < 1 | < 1 | <5 | Nc1nc(-c2nnc(Nc3ccc4[nH]ncc4c3Cl)s2)c[nH]1 [Example 75W] |
| 1 to 15 | 1 to 15 | <5 | NCCS(=O)(=O)Nc1cccc(-c2nnc(Nc3ccc4[nH]ncc4c3)s2)c1 [Example A-1] |
| 1 to 15 | < 1 | >5 | CC(C)NCC(=O)Nc1cncc(-c2nnc(Nc3ccc4[nH]ncc4c3)s2)c1 [Example A-2] |
| 1 to 15 | < 1 | <5 | CN(C)CC(=O)Nc1cncc(-c2nnc(Nc3ccc4[nH]ncc4c3)s2)c1 [Example A-3] |
| 1 to 15 | 1 to 15 | <5 | O=C(NCC(O)CO)c1cccc(-c2nnc(Nc3ccc4[nH]ncc4c3)s2)c1 (stereo not drawn) [Example A-4] |
| < 1 | < 1 | >5 | Cn1cc(C(=O)Nc2cc(-c3nnc(Nc4ccc5[nH]ncc5c4)s3)ccc2C(=O)O)cn1 [Example A-5] |
| 15 to 30 | 1 to 15 | >5 | O=C(O)c1cccc(-c2nnc(Nc3ccc4[nH]ncc4c3)s2)c1 [Example A-9] |
| 15 to 30 | 1 to 15 | <5 | CN(CC(O)CO)C(=O)c1cccc(-c2nnc(Nc3ccc4[nH]ncc4c3)s2)c1 (stereo not drawn) [Example A-10] |
| 1 to 15 | 1 to 15 | >5 | CCS(=O)(=O)Nc1cncc(-c2nnc(Nc3ccc4[nH]ncc4c3)s2)c1 [Example A-14] |
| < 1 | < 1 | <5 | Cn1cnc2c(-c3nnc(Nc4ccc5[nH]ncc5c4)s3)cccc21 [Example A-15] |
| < 1 | < 1 | >5 | CCn1cc(C(=O)Nc2cccc(-c3nnc(Nc4ccc5[nH]ncc5c4)s3)c2)cn1 [Example A-16] |
| 1 to 15 | 1 to 15 | <5 | CS(=O)(=O)Nc1cncc(-c2nnc(Nc3ccc4[nH]ncc4c3)s2)c1 [Example A-18] |
| 15 to 30 | 15 to 30 | <5 | COc1cccc(-c2nnc(N(CCO)c3ccc4[nH]ncc4c3)s2)c1 [Example A-21] |
| 1 to 15 | 1 to 15 | >5 | O=C(O)COc1cccc(-c2nnc(Nc3ccc4[nH]ncc4c3)s2)c1 [Example A-22] |
| < 1 | < 1 | <5 | Nc1cncc(-c2nnc(Nc3ccc4[nH]ncc4c3)s2)c1 [Example A-24] |
| < 1 | < 1 | >5 | CC1CCN(C(=O)Nc2cccc(-c3nnc(Nc4ccc5[nH]ncc5c4)s3)c2)C1 (stereo not drawn) [Example A-28] |
| 1 to 15 | 1 to 15 | <5 | c1cc2[nH]ncc2cc1Nc1nnc(C2CNCCN2)s1 (stereo not drawn) [Example A-29] |
| 1 to 15 | < 1 | <5 | NC1CCN(C(=O)Nc2cccc(-c3nnc(Nc4ccc5[nH]ncc5c4)s3)c2)C1 (stereo not drawn) [Example A-35] |
| 1 to 15 | 1 to 15 | <5 | N[C@@H]1CCN(c2nnc(Nc3ccc4[nH]ncc4c3)s2)C1 [Example A-38] |
| 1 to 15 | < 1 | >5 | Cc1cc(C(=O)Nc2cccc(-c3nnc(Nc4ccc5[nH]ncc5c4)s3)c2)[nH]n1 [Example A-39] |
| < 1 | < 1 | >5 | Cn1ccc(C(=O)Nc2cccc(-c3nnc(Nc4ccc5[nH]ncc5c4)s3)c2)n1 [Example A-42] |
| 1 to 15 | 1 to 15 | <5 | O=[N+]([O-])c1cccc(-c2nnc(Nc3ccc4[nH]ncc4c3)s2)c1 [Example A-45] |

Source: US10112935B2, “Indazolyl thiadiazolamines and related compounds for inhibition of Rho-associated protein kinase and the treatment of disease” (Lycera Corporation, priority 2015, dated 2018)
